Patent publication US20170342061A1 (CHONGQING PHARMACEUTICAL INDUSTRIAL RESEARCH INSTITUTE CO., …, priority 2014, published 2017)

Assay: Stability testing of crystal form I of Canagliflozin
Format: physicochemical
[1] = placed at 25 ± 2° C. and a humidity of RH92.5% for 30 days
[2] = placed at 40 ± 2° C. for 30 days
[3] = placed at 60 ± 2° C. for 30 days

HPLC change before placed (before being placed at 25 ± 2° C. and a humidity of RH92.5% for 30 days): 99.89% | HPLC change before placed (before being placed at 40 ± 2° C. for 30 days): 99.89% | HPLC change before placed (before being placed at 60 ± 2° C. for 30 days): 99.89% | stability (overall conclusion from the stability table): good stability | HPLC change after placed [1]: 99.89% | crystal form [1]: Crystal form I | whether the appearance changed [1]: No change | whether there being apparent moisture absorption [1]: No apparent | HPLC change after placed [2]: 99.88% | crystal form [2]: Crystal form I | whether the appearance changed [2]: No change | whether there being apparent moisture absorption [2]: No apparent | HPLC change after placed [3]: 99.87% | crystal form [3]: Crystal form I | whether the appearance changed [3]: No change | whether there being apparent moisture absorption [3]: No apparent
SMILES: Cc1ccc([C@@H]2O[C@H](CO)[C@@H](O)[C@H](O)[C@H]2O)cc1Cc1ccc(-c2ccc(F)cc2)s1 [crystal form I of Canagliflozin, 1-(β-D-glucopyranosyl)-4-methyl-3-[5-(4-fluorophenyl)-2-thienylmethyl]benzene]
